According to US9469642B2, “Purinone compounds as kinase inhibitors” (Pharmacyclics LLC, priority 2012, dated 2016):

Experiments:
Type in all cases: biochemical
LCK = LCK (Homo sapiens, UniProt P06239); assay: Kinase panel inhibition, LCK (one of the methods of Example 76a, 76b, 76c)
Protocol: (§1) Btk kinase activity is determined using a time-resolved fluorescence resonance energy transfer (TR-FRET) methodology. Measurements are performed in a reaction volume of 50 μL using 96-well assay plates. Kinase enzyme, inhibitor, ATP (at the Km for the kinase), and 1 peptide substrate (Biotin-AVLESEEELYSSARQ-NH2) are incubated in a reaction buffer composed of 20 mM Tris, 50 mM NaCl, MgCl2 (5-25 mM depending on the kinase), MnCl2 (0-10 mM), 1 mM DTT, 0.1 mM EDTA, 0.01% bovine serum albumin, 0.005% Tween-20, and 10% DMSO at pH 7.4 for one hour. The reaction is quenched by the addition of 1.2 equivalents of EDTA (relative to divalent cation) in 25 μL of 1× Lance buffer (Perkin-Elmer). Streptavidin-APC (Perkin-Elmer) and Eu-labeled p-Tyr100 antibody (Perkin-Elmer) in 1× Lance buffer are added in a 25 μL volume to give final concentrations of 100 nM and 2.5 nM, respectively, and the mixture is allowed to incubate for one hour. The TR-FRET signal is measured on a multimode plate reader with an excitation wavelength (λEx) of 330 nm and detection wavelengths (λEm) of 615 and 665 nm. Activity is determined by the ratio of the fluorescence at 665 nm to that at 615 nm. For each compound, enzyme activity is measured at various concentrations of compound. Negative control reactions are performed in the absence of inhibitor in replicates of six, and two no-enzyme controls are used to determine baseline fluorescence levels. Inhibition constants, Ki(app), were obtained using the program BatchKi (Kuzmic et al. (2000), Anal. Biochem. 286:45-50). IC50s are obtained according to the equation: IC50=[…]+[E]total/2;
(§2) For all kinases, [ATP]=Km^ATP, [Btk]total=0.5 nM and [Lck]total=6 nM.
(§3) Kinase activity is measured in vitro using electrophoretic mobility shift assay. The kinase reactions are assembled in a total volume of 25 μL in 384 well plates. The reactions comprise: BTK enzyme (1 nM, N-terminal His6-tagged, recombinant, full-length, human BTK purified from baculovirus Sf21 insect cell system), inhibitor, ATP (16 μM, the apparent Km for the kinase), fluorescently labeled peptide substrate (1 μM, FAM-GEEPLYWSFPAKKK-NH2) in a reaction buffer composed of 100 mM HEPES, pH7.5, 5 mM MgCl2 1 mM DTT, 0.1% bovine serum albumin, 0.01% Triton X-100, and 1% DMSO. The reaction is incubated for one hour and is quenched by the addition of 45 μL of termination buffer (100 mM HEPES, pH7.5, 0.01% Triton X-100, 30 mM EDTA). The terminated reactions are analyzed using 12 channel LabChip® 3000 microfluidic detection instrument (Caliper Life Sciences). The enzymatic phosphorylation of the peptide results in a change in net charge, enabling electrophoretic separation of product from substrate peptide. As substrate and product peptides are separated, two peaks of fluorescence are observed. Change in the relative fluorescence intensity of the substrate and product peaks is the parameter measured, reflecting enzyme activity. In the presence of an inhibitor, the ratio between product and substrate is altered:the signal of the product decreases, while the signal of the substrate increases.
(§4) Activity in each sample is determined as the product to sum ratio (PSR):P/(S+P), where P is the peak height of the product peptide and S is the peak height of the substrate peptide. For each compound, enzyme activity is measured at various concentrations (12 concentrations of compound spaced by 3× dilution intervals). Negative control samples (0%-inhibition in the absence of inhibitor) and positive control samples (100%-inhibition, in the presence of 20 mM EDTA) are assembled in replicates of four and are used to calculate %-inhibition values for each inhibitor at each concentration. Percent inhibition (Pinh) is determined using following equation: […]

EGFR = EGFR (Homo sapiens, UniProt P00533); assay: Kinase panel inhibition, EGFR (one of the methods of Example 76a, 76b, 76c)
Protocol: as §1, §2, §3, §4

BTK = target: T1, BTK (Homo sapiens, UniProt Q06187); assay: Btk in vitro inhibitory activity (kinase assay by one of Methods A, B or C)
T1 construct: purified from insect cells as a full-length construct containing a N-terminal 6×-His tag; His6 (N); host or cells: insect cells (baculovirus Sf21)
Protocol: as §1, §2, §3, §4

T1 sequence (Q06187 whole entry): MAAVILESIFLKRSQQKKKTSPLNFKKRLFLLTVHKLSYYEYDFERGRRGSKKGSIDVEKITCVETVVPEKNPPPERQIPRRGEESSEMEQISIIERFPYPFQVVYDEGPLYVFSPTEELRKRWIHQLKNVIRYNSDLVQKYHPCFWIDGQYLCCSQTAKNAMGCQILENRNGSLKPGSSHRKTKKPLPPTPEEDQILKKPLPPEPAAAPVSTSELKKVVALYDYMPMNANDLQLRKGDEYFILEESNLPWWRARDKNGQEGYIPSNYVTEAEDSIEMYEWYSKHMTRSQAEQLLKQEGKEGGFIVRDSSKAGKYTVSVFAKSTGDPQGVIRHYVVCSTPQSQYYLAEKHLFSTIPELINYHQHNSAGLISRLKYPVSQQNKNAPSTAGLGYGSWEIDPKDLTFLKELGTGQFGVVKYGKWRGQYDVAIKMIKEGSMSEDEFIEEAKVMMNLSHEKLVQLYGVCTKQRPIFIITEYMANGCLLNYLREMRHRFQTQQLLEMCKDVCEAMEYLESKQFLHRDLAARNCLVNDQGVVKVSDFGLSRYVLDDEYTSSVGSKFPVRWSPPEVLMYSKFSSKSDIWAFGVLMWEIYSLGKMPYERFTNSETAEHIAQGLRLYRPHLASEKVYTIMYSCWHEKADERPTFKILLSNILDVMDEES
Chain of LCK (P06239 whole entry, species assumed): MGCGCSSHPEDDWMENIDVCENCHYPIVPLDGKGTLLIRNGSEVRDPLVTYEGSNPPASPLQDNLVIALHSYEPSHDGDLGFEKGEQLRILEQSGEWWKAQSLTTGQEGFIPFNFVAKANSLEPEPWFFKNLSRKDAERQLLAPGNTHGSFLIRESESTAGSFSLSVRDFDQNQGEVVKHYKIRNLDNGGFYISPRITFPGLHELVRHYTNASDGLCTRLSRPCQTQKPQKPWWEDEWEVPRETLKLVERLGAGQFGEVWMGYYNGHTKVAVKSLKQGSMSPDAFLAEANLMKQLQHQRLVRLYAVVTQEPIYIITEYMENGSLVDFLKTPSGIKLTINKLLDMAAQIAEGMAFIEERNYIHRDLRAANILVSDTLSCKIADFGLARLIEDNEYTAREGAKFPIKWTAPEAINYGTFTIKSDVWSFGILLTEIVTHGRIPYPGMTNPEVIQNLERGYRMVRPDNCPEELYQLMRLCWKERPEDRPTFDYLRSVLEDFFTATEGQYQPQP
Chain of EGFR (P00533 25-1210, species assumed): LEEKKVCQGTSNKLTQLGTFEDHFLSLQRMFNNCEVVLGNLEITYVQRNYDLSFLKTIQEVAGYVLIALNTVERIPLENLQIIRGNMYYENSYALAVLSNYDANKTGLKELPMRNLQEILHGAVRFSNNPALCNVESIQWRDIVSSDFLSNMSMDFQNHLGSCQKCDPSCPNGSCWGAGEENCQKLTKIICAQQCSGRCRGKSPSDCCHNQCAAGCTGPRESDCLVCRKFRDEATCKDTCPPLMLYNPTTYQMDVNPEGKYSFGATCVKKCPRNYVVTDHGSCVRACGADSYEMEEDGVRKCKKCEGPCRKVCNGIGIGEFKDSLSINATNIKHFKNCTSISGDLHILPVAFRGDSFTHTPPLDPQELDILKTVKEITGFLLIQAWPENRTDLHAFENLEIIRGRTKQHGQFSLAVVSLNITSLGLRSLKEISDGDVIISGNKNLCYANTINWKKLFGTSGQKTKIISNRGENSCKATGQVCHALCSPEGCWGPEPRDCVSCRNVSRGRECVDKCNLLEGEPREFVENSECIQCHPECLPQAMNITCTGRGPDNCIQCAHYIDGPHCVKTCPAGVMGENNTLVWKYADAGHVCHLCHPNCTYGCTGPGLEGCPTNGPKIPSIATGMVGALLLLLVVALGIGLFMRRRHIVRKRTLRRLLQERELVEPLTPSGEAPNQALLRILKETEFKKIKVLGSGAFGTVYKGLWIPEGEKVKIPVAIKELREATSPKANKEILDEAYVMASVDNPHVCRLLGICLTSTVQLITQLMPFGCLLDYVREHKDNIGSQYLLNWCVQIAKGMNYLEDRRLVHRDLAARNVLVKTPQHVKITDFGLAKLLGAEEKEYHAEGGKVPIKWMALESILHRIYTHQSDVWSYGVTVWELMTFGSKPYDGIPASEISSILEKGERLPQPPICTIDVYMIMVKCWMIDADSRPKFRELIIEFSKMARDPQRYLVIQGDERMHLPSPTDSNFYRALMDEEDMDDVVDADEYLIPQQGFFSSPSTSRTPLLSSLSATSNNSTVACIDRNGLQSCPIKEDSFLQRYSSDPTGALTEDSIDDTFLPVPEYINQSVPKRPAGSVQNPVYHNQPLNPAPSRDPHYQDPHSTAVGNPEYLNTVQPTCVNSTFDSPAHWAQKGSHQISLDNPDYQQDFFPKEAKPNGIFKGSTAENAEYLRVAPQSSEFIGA

IC50 (LCK) [nM]	IC50 (EGFR) [nM]	IC50 (BTK) [nM]	Compound
100 to 1000	< 100	< 100	CN(C)C/C=C/C(=O)Nc1cccc(-n2c(=O)n(-c3ccc(Oc4ccccc4)cc3)c3c(N)ncnc32)c1 [Compound 8, (E)-N-(3-(6-amino-8-oxo-7-(4-phenoxyphenyl)-7H-purin-9(8H)-yl)phenyl)-4-(dimethylamino)but-2-enamide]
100 to 1000	< 100	< 100	CN(C/C=C/C(=O)Nc1cccc(-n2c(=O)n(-c3ccc(Oc4ccccc4)cc3)c3c(N)ncnc32)c1)C1CC1 [Compound 9, (E)-N-(3-(6-amino-8-oxo-7-(4-phenoxyphenyl)-7H-purin-9(8H)-yl)phenyl)-4-(cyclopropyl(methyl)amino)but-2-enamide]
100 to 1000	< 100	< 100	CN(C/C=C/C(=O)Nc1cccc(-n2c(=O)n(-c3ccc(Oc4ccccc4)cc3)c3c(N)ncnc32)c1)C1CCC1 [Compound 10, (E)-N-(3-(6-amino-8-oxo-7-(4-phenoxyphenyl)-7H-purin-9(8H)-yl)phenyl)-4-(cyclobutyl(methyl)amino)but-2-enamide]
< 100	< 100	< 100	C=CC(=O)Nc1cccc(-n2c(=O)n(-c3ccc(Oc4ccccc4)cc3)c3c(N)ncnc32)c1 [Compound 11, N-(3-(6-amino-8-oxo-7-(4-phenoxyphenyl)-7H-purin-9(8H)-yl)phenyl)acrylamide]
–	–	< 100	Nc1ncnc2c1n(-c1ccc(Oc3ccccc3)cc1)c(=O)n2-c1cccc(NC(=O)/C=C/CNC2CC2)c1 [Compound 116, (E)-N-(3-(6-amino-8-oxo-7-(4-phenoxyphenyl)-7H-purin-9(8H)-yl)phenyl)-4-(cyclopropylamino)but-2-enamide]
–	–	< 100	COc1cc(NC(=O)/C=C/CN(C)C2CC2)cc(-n2c(=O)n(-c3ccc(Oc4ccccc4)cc3)c3c(N)ncnc32)c1 [Compound 263, (E)-N-(3-(6-amino-8-oxo-7-(4-phenoxyphenyl)-7H-purin-9(8H)-yl)-5-methoxyphenyl)-4-(cyclopropyl(methyl)amino)but-2-enamide]
–	–	100 to 1000	CN(C(=O)/C=C/CN)c1cccc(-n2c(=O)n(-c3ccc(Oc4ccccc4)cc3)c3c(N)ncnc32)c1 [Compound 326, (E)-4-amino-N-(3-(6-amino-8-oxo-7-(4-phenoxyphenyl)-7H-purin-9(8H)-yl)phenyl)-N-methylbut-2-enamide]

More lines, now with the values behind:

Compound	IC50 (LCK) [nM]	IC50 (EGFR) [nM]	IC50 (BTK) [nM]
CN(C)C/C=C/C(=O)Nc1cccc(-n2c(=O)n(-c3ccc(Cl)cc3)c3c(N)ncnc32)c1 [Compound 14, (E)-N-(3-(6-amino-7-(4-chlorophenyl)-8-oxo-7H-purin-9(8H)-yl)phenyl)-4-(dimethylamino)but-2-enamide]	1000 to 10000	1000 to 10000	< 100
COc1cc(-n2c(=O)n(-c3cccc(NC(=O)/C=C/CN(C)C)c3)c3ncnc(N)c32)ccc1C [Compound 17, (E)-N-(3-(6-amino-7-(3-methoxy-4-methylphenyl)-8-oxo-7H-purin-9(8H)-yl)phenyl)-4-(dimethylamino)but-2-enamide]	1000 to 10000	1000 to 10000	< 100
CN(C)C/C=C/C(=O)N(C)c1cccc(-n2c(=O)n(-c3ccc(Cl)cc3)c3c(N)ncnc32)c1 [Compound 27, (E)-N-(3-(6-amino-7-(4-chlorophenyl)-8-oxo-7H-purin-9(8H)-yl)phenyl)-4-(dimethylamino)-N-methylbut-2-enamide]	> 10000	> 10000	< 100
COc1cc(-n2c(=O)n(-c3cccc(N(C)C(=O)/C=C/CN(C)C)c3)c3ncnc(N)c32)ccc1C [Compound 30, (E)-N-(3-(6-amino-7-(3-methoxy-4-methylphenyl)-8-oxo-7H-purin-9(8H)-yl)phenyl)-4-(dimethylamino)-N-methylbut-2-enamide]	> 10000	> 10000	< 100
CN(C(=O)/C=C/CN(C)C1CCC1)c1cccc(-n2c(=O)n(-c3ccc(Oc4ccccc4)cc3)c3c(N)ncnc32)c1 [Compound 35, (E)-N-(3-(6-amino-8-oxo-7-(4-phenoxyphenyl)-7H-purin-9(8H)-yl)phenyl)-4-(cyclobutyl(methyl)amino)-N-methylbut-2-enamide]	–	–	< 100
C=CC(=O)N(C)c1cccc(-n2c(=O)n(-c3ccc(C)c(OC)c3)c3c(N)ncnc32)c1 [Compound 76, N-(3-(6-amino-7-(3-methoxy-4-methylphenyl)-8-oxo-7H-purin-9(8H)-yl)phenyl)-N-methylacrylamide]	–	–	< 100
C=CC(=O)N(C)c1cccc(-n2c(=O)n(-c3ccc(Cl)cc3)c3c(N)ncnc32)c1 [Compound 77, N-(3-(6-amino-7-(4-chlorophenyl)-8-oxo-7H-purin-9(8H)-yl)phenyl)-N-methylacrylamide]	–	–	< 100
C=CC(=O)N1CC[C@@H](n2c(=O)n(-c3ccc(Cl)cc3)c3c(N)ncnc32)C1 [Compound 78, (R)-9-(1-acryloylpyrrolidin-3-yl)-6-amino-7-(4-chlorophenyl)-7H-purin-8(9H)-one]	–	–	< 100
C=CC(=O)N1CC[C@@H](n2c(=O)n(-c3ccc(C)c(OC)c3)c3c(N)ncnc32)C1 [Compound 82, (R)-9-(1-acryloylpyrrolidin-3-yl)-6-amino-7-(3-methoxy-4-methylphenyl)-7H-purin-8(9H)-one]	–	–	< 100
C=CC(=O)N1CCC[C@@H](n2c(=O)n(-c3ccc(Cl)cc3)c3c(N)ncnc32)C1 [Compound 90, (R)-9-(1-acryloylpiperidin-3-yl)-6-amino-7-(4-chlorophenyl)-7H-purin-8(9H)-one]	–	–	< 100
C=CC(=O)N1CCC[C@@H](n2c(=O)n(-c3ccc(C)c(OC)c3)c3c(N)ncnc32)C1 [Compound 93, (R)-9-(1-acryloylpiperidin-3-yl)-6-amino-7-(3-methoxy-4-methylphenyl)-7H-purin-8(9H)-one]	–	–	< 100
COc1ccc(N(C)C(=O)/C=C/CN(C)C2CC2)cc1-n1c(=O)n(-c2ccc(Oc3ccccc3)cc2)c2c(N)ncnc21 [Compound 181, (E)-N-(3-(6-amino-8-oxo-7-(4-phenoxyphenyl)-7H-purin-9(8H)-yl)-4-methoxyphenyl)-4-(cyclopropyl(methyl)amino)-N-methylbut-2-enamide]	–	–	100 to 1000
CN(C(=O)/C=C/CN(C)C1CC1)c1cccc(-n2c(=O)n(-c3ccc(Oc4ccc(O)cc4)cc3)c3c(N)ncnc32)c1 [Compound 269, (E)-N-(3-(6-amino-7-(4-(4-hydroxyphenoxy)phenyl)-8-oxo-7H-purin-9(8H)-yl)phenyl)-4-(cyclopropyl(methyl)amino)-N-methylbut-2-enamide]	–	–	< 100
CN(C(=O)/C=C/CN(C)C1CC1)c1cccc(-n2c(=O)n(-c3ccc(NC(=O)c4ccccc4)cc3)c3c(N)ncnc32)c1 [Compound 274, (E)-N-(4-(6-amino-9-(3-(4-(cyclopropyl(methyl)amino)-N-methylbut-2-enamido)phenyl)-8-oxo-8,9-dihydro-7H-purin-7-yl)phenyl)benzamide]	–	–	< 100
CN(C(=O)/C=C/CN(C)C1CC1)c1cccc(-n2c(=O)n(-c3ccc(C(=O)Nc4ccccc4)cc3)c3c(N)ncnc32)c1 [Compound 280, (E)-4-(6-amino-9-(3-(4-(cyclopropyl(methyl)amino)-N-methylbut-2-enamido)phenyl)-8-oxo-8,9-dihydro-7H-purin-7-yl)-N-phenylbenzamide]	–	–	100 to 1000
